Results as given in patent US20260103471A1, “CYCLIC UREA THIAZOLYL COMPOUNDS FOR TREATMENT OF HSV” (Assembly Biosciences, Inc., priority 2022, published 2026).

Experiments:
HSV = conditions: long-term suppressive treatment; cited from earlier work
HSV-2 G strain = test: HSV-2 Antiviral Assay (Vero cells, cell viability); type: cell-based; conditions: Human alphaherpesvirus 2, Vero, 120 h, Vero cells, 160 TCID50 HSV-2 G strain, 5 days, cell viability
How it was run: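 Vero cells (1.0×10^4/well, attached overnight) given 8-point 3-fold compound dilutions (0.5% DMSO) then infected with 160 TCID50 HSV-2 G strain in 2% FBS medium for 5 days at 37 °C. Protection read as cell viability by WST-8 absorbance at 460 and 620 nm after 3 h.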

HSV-1 = HSV-1 Antiviral Assay (Vero cells, cell viability); type: cell-based; conditions: Human alphaherpesvirus 1, 96 h; Vero cells, 80 TCID50 HSV-1, 4 days, cell viability; read-out: HSV-1 EC50
How it was run: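 Vero cells (2.5×10^3/well) received 8-point 3-fold compound dilutions in 2% FBS medium (0.5% DMSO), then 80 TCID50 HSV-1. After 4 days at 37 °C, cell viability was measured by CellTiter-Glo luminescence.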

SMILES | EC50 (HSV-2 G strain) [nM] | EC50 (HSV-1) [nM] | reduce transmission risk (HSV) [%]
CC(C)[C@H](N)C(=O)OCCOCn1cnc2c(=O)[nH]c(N)nc21 [valacyclovir] | – | – | 46
Cc1nc(N2CCCN(c3ccc(-c4ccccc4F)cc3F)C2=O)sc1S(N)(=O)=O [Compound 96] | < 100 | < 100 | –
Cc1nc(N2CC3(CC3)CN(c3ccc(-c4ccnn4C)cc3)C2=O)sc1S(N)(=O)=O [Compound 113, 4-Methyl-2-(7-(4-(1-methyl-1H-pyrazol-5-yl)phenyl)-6-oxo-5,7-diazaspiro[2.5]octan-5-yl)thiazole-5-sulfonamide] | 1000 to 5000 | 1000 to 5000 | –
Cc1nc(N2CCCN(c3ccc(-c4cc(F)ccc4C#N)cc3)C2=O)sc1S(N)(=O)=O [Compound 24] | < 100 | < 100 | –
Cc1nc(N2CCCN(c3ccc(-c4nccc5ccccc45)cc3)C2=O)sc1S(N)(=O)=O [Compound 86] | 100 to 1000 | 100 to 1000 | –
Cc1nc(N2CCCN(c3ccc(-c4cc(F)cc(Br)c4F)cc3)C2=O)sc1S(N)(=O)=O [Compound 212] | < 100 | < 100 | –
CNS(=O)(=O)c1sc(N2CCCN(c3ccc(-c4ccccn4)cc3)C2=O)nc1C [Compound 118] | < 100 | < 100 | –
Cc1nc(N2CCCN(c3ccc(-c4nc5c(F)cccc5s4)cc3)C2=O)sc1S(N)(=O)=O [Compound 90] | 100 to 1000 | 100 to 1000 | –
Cc1nc(N2CC3(COC3)CN(c3ccc(-c4cc(F)ccc4F)cc3)C2=O)sc1S(C)(=O)=O [Compound 436] | < 100 | < 100 | –
Cc1nc(N2CCCN(c3ccc(-c4cc(F)cc5nsnc45)cc3)C2=O)sc1S(N)(=O)=O [Compound 259] | < 100 | < 100 | –
COCc1ccc(F)cc1-c1ccc(N2CCCN(c3nc(C)c(S(N)(=O)=O)s3)C2=O)cc1 [Compound 209] | < 100 | < 100 | –
Cc1nc(N2CCCN(c3ccc(-c4ccccn4)c(F)c3)C2=O)sc1S(N)(=O)=O [Compound 97] | < 100 | < 100 | –

Now from value to compound, other results behind:

EC50 (HSV-2 G strain) [nM] | EC50 (HSV-1) [nM] | SMILES | reduce transmission risk (HSV) [%]
< 100 | < 100 | Cc1nc(N2CCCN(c3ccc(-c4cc(F)ccc4F)cc3)C2=O)sc1S(N)(=O)=O [Compound 5] | –
100 to 1000 | 100 to 1000 | Cc1nc(N2CCCN(c3ccc(-c4cccnc4)cc3)C2=O)sc1S(N)(=O)=O [Compound 2] | –
< 100 | < 100 | Cc1nc(N2CCCN(c3ccc(-c4cccc5cnccc45)cc3)C2=O)sc1S(N)(=O)=O [Compound 85] | –
< 100 | 100 to 1000 | Cc1nc(N2CCCN(c3ccc(-c4cccc5ncccc45)cc3)C2=O)sc1S(N)(=O)=O [Compound 84] | –
100 to 1000 | 100 to 1000 | Cc1nc(N2CCCN(c3ccc(-c4cccc5[nH]cnc45)cc3)C2=O)sc1S(N)(=O)=O [Compound 74] | –
< 100 | < 100 | Cc1nc(N2CCCN(c3ccc(-c4cc(F)cc(-c5cnn(C(F)F)c5)c4F)cc3)C2=O)sc1S(N)(=O)=O [Compound 228, 2-(3-(3′-(1-(difluoromethyl)-1H-pyrazol-4-yl)-2′,5′-difluoro-[1,1′-biphenyl]-4-yl)-2-oxotetrahydropyrimidin-1(2H)-yl)-4-methylthiazole-5-sulfonamide] | –
100 to 1000 | 100 to 1000 | Cc1nc(N2CCCN(c3ccc(-c4cccc5c4cnn5C(C)C)cc3)C2=O)sc1S(N)(=O)=O [Compound 56] | –
< 100 | < 100 | Cc1nc(N2CCCN(c3ccc(-c4cc(F)ccn4)cc3)C2=O)sc1S(N)(=O)=O [Compound 36] | –
